Results published in ChEMBL document CHEMBL4808249, “Total synthesis and biological evaluation of 7-hydroxyneolamellarin A as hypoxia-inducible factor-1α inhibitor for cancer therapy” (Bioorg Med Chem Lett, 2021).
One block for each compound: values may come before it. Activity calls are given as the source filed them. The calls are words filed in the database; no cut-off is given here.

Experiments:
[1] = Toxicity in BALB/c mouse xenografted with mouse 4T1 cells assessed as effect on liver morphology at 15 mg/kg, ip administered every 2 days starting from day 7 post-inoculation and measured on day 24 by Hematoxyin-eosin staining based analysis; assay type: organism-based; conditions: in vivo, 432 h, time 18 day
[2] = Toxicity in BALB/c mouse xenografted with mouse 4T1 cells assessed as effect on body weight at 15 mg/kg, ip administered every 2 days starting from day 7 post-inoculation and measured on day 24; assay type: organism-based; conditions: in vivo, 432 h, time 18 day
[3] = Toxicity in BALB/c mouse xenografted with mouse 4T1 cells assessed as effect on kidney morphology at 15 mg/kg, ip administered every 2 days starting from day 7 post-inoculation and measured on day 24 by Hematoxyin-eosin staining based analysis; assay type: organism-based; conditions: in vivo, 432 h, time 18 day
[4] = Toxicity in BALB/c mouse xenografted with mouse 4T1 cells assessed as effect on spleen morphology at 15 mg/kg, ip administered every 2 days starting from day 7 post-inoculation and measured on day 24 by Hematoxyin-eosin staining based analysis; assay type: organism-based; conditions: in vivo, 432 h, time 18 day
4T1 [5] = assay: Antitumor activity against mouse 4T1 cells xenografted in BALB/c mouse assessed as tumor growth inhibition at 15 mg/kg, ip administered every 2 days starting from day 7 post-inoculation and measured on day 24; assay type: functional, organism-based; conditions: time 18.0 day
[6] = Toxicity in BALB/c mouse xenografted with mouse 4T1 cells assessed as effect on heart morphology at 15 mg/kg, ip administered every 2 days starting from day 7 post-inoculation and measured on day 24 by Hematoxyin-eosin staining based analysis; assay type: organism-based; conditions: in vivo, 432 h, time 18 day
[7] = Toxicity in BALB/c mouse xenografted with mouse 4T1 cells assessed as effect on body weight at 15 mg/kg, iv administered every 2 days starting from day 7 post-inoculation and measured on day 24; assay type: organism-based; conditions: in vivo, 432 h, time 18 day
HeLa [8] = assay: Downregulation of HIF-1beta expression in human HeLa cells at 50 to 150 umol/L incubated under hypoxia conditions for 4 hrs by western blot analysis; assay type: functional, cell-based; conditions: dose 50-150 µmol/L
HUVEC = assay: Inhibition of angiogenesis in human HUVEC cells assessed as disruption of tube formation at 150 umol/L incubated under hypoxia condition for 6 hrs by Matrigel based analysis; assay type: functional, cell-based; conditions: dose 150.0 µmol/L
HeLa [9] = assay: Downregulation of HIF-1alpha expression in human HeLa cells at 50 to 150 umol/L incubated under hypoxia condition for 4 hrs by immunofluorescence analysis; assay type: functional, cell-based; conditions: dose 50-150 µmol/L
4T1 [10] = assay: Antitumor activity against mouse 4T1 cells xenografted in BALB/c mouse assessed as tumor growth inhibition at 15 mg/kg, iv administered every 2 days starting from day 7 post-inoculation and measured on day 24; assay type: functional, organism-based; conditions: time 18.0 day
HeLa [11] = assay: Cytotoxicity against human HeLa cells assessed as cell viability at 6.3 to 150 umol/L incubated under hypoxia condition for 24 hrs by MTT assay; assay type: cell-based; conditions: dose 6.3-150 µmol/L
HeLa [12] = assay: Inhibition of cell migration in human HeLa cells at 10 to 50 umol/L incubated under hypoxia condition for 36 hrs by wound healing assay; assay type: functional, cell-based; conditions: dose 10-50 µmol/L
HeLa [13] = assay: Downregulation of HIF-1 alpha expression in human HeLa cells assessed as half life of the protein at 150 umol/L incubated under CoCl2-stimulated hypoxia conditions for 4 hrs followed by incubation with compound and protein translation inhibitor, CHX under normoxia conditions for 240 mins by Western blot analysis (reference value: 33.4 mins); assay type: functional, cell-based; conditions: dose 150.0 µmol/L
[14] = target: T1, Hypoxia-inducible factor 1-alpha (Homo sapiens, UniProt Q16665); assay: Inhibition of HIF-1alpha in human HeLa cells assessed as reduction in VEGF mRNA level incubated under hypoxia condition for 12 hrs by RT-PCR analysis; assay type: cell-based; conditions: dose 25-100 µmol/L
Target sequence in this assay (Q16665 whole entry, looked up): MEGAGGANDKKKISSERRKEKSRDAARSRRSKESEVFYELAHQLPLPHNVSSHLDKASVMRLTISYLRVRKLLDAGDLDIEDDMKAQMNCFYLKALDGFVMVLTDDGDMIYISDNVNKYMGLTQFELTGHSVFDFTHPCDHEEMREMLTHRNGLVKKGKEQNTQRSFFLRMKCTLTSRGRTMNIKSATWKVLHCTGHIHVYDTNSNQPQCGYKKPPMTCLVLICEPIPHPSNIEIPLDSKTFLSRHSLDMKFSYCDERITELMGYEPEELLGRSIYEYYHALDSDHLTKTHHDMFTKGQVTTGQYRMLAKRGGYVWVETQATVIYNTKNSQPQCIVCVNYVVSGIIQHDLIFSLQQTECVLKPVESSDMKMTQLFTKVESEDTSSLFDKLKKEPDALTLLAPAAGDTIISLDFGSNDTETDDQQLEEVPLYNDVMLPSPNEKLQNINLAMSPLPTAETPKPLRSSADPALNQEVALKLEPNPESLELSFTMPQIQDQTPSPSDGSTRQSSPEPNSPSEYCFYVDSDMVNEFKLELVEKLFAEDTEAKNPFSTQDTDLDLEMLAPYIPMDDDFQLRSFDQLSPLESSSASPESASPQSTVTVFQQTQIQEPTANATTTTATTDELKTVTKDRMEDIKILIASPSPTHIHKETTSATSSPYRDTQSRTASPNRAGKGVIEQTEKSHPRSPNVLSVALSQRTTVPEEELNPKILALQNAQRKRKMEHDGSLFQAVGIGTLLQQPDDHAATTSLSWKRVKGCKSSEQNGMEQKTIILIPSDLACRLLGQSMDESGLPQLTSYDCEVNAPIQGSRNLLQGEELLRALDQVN

[15] = Toxicity in BALB/c mouse xenografted with mouse 4T1 cells assessed as effect on heart morphology at 15 mg/kg, iv administered every 2 days starting from day 7 post-inoculation and measured on day 24 by Hematoxyin-eosin staining based analysis; assay type: organism-based; conditions: in vivo, 432 h, time 18 day
HeLa [16] = assay: Downregulation of HIF-1 alpha expression in human HeLa cells at 50 to 150 umol/L incubated under normoxia conditions for 4 hrs in presence of CoCl2 by Western blot analysis; assay type: functional, cell-based; conditions: dose 50-150 µmol/L
HeLa [17] = assay: Downregulation of HIF-1 alpha expression in human HeLa cells at 50 to 150 umol/L incubated under hypoxia conditions for 4 hrs by Western blot analysis; assay type: functional, cell-based; conditions: dose 50-150 µmol/L
HeLa [18] = assay: Cytotoxicity against human HeLa cells assessed as cell viability at 6.3 to 150 umol/L incubated under normoxic conditions for 24 hrs by MTT assay; assay type: cell-based; conditions: dose 6.3-150 µmol/L
MCF7 = assay: Downregulation of HIF-1alpha expression in human MCF7 cells at 50 to 150 umol/L incubated under hypoxia condition for 4 hrs by Western blot analysis; assay type: functional, cell-based; conditions: dose 50-150 µmol/L
HeLa [19] = assay: Inhibition of colony formation in human HeLa cells incubated under hypoxia condition for 10 days; assay type: functional, cell-based; conditions: dose 5-50 µmol/L, time 10.0 day
HeLa [20] = assay: Antiinvasive activity in human HeLa cells assessed as inhibition of cell invasion at 50 to 150 umol/L incubated under hypoxia condition for 36 hrs by transwell invasion assay; assay type: functional, cell-based; conditions: dose 50-150 µmol/L
4T1 [21] = assay: Downregulation of HIF-1alpha protein expression in tumor tissue of BALB/c mouse xenografted with mouse 4T1 cells at 15 mg/kg, iv administered every 2 days starting from day 7 post-inoculation and measured on day 24 by immunofluorescence analysis; assay type: functional, organism-based; conditions: time 18.0 day
HeLa [22] = assay: Downregulation of HIF-1 alpha expression in human HeLa cells at 100 to 150 umol/L incubated under hypoxia conditions for 4 hrs in presence of proteasome inhibitor, MG132 by Western blot analysis; assay type: functional, cell-based; conditions: dose 100-150 µmol/L
4T1 [23] = assay: Downregulation of HIF-1alpha expression in mouse 4T1 cells at 50 to 150 umol/L incubated under hypoxia condition for 4 hrs by Western blot analysis; assay type: functional, cell-based; conditions: dose 50-150 µmol/L
[24] = target: T1, Hypoxia-inducible factor 1-alpha; assay: Inhibition of HIF-1alpha in human HeLa cells transfected with HRE-driven firefly luciferase gene pretreated with compound followed by incubation under normoxic condition for 1 hr followed by hypoxic condition for 12 hrs by dual luciferase reporter gene assay; assay type: cell-based
[25] = Toxicity in BALB/c mouse xenografted with mouse 4T1 cells assessed as effect on spleen morphology at 15 mg/kg, iv administered every 2 days starting from day 7 post-inoculation and measured on day 24 by Hematoxyin-eosin staining based analysis; assay type: organism-based; conditions: in vivo, 432 h, time 18 day
[26] = Toxicity in BALB/c mouse xenografted with mouse 4T1 cells assessed as effect on liver morphology at 15 mg/kg, iv administered every 2 days starting from day 7 post-inoculation and measured on day 24 by Hematoxyin-eosin staining based analysis; assay type: organism-based; conditions: in vivo, 432 h, time 18 day
[27] = Toxicity in BALB/c mouse xenografted with mouse 4T1 cells assessed as effect on kidney morphology at 15 mg/kg, iv administered every 2 days starting from day 7 post-inoculation and measured on day 24 by Hematoxyin-eosin staining based analysis; assay type: organism-based; conditions: in vivo, 432 h, time 18 day

Structure (SMILES): C=CCNC1=C2C[C@@H](C)C[C@H](OC)[C@H](O)[C@@H](C)/C=C(\C)[C@H](OC(N)=O)[C@@H](OC)/C=C\C=C(/C)C(=O)NC(=CC1=O)C2=O (stereo in doubt) [TANESPIMYCIN]
Activity [1]: Non-Toxic | Activity [2]: Non-Toxic | Activity [3]: Non-Toxic | Activity [4]: Non-Toxic | Activity (4T1 [5]): Active | Activity [6]: Non-Toxic

inhibition [14]: Dose-Dependent Effect | IC50 [24]: 23 µM | inhibition ([24]; time 13.0 hrs): Dose-Dependent Effect
Structure (SMILES): O=C(C(O)c1ccc(O)cc1)n1cc(-c2ccc(O)cc2)c(-c2ccc(O)cc2)c1 (stereo not given) [7-(R/S)-HYDROXYLAMELLARIN A]
Activity [7]: Non-Toxic | inhibition (HeLa [8]): inactive | inhibition (HUVEC): Active | inhibition (HeLa [9]): Active | Activity (4T1 [10]): Active | Activity (HeLa [11]): Non-Toxic | inhibition (HeLa [12]): Active | T1/2 (HeLa [13]): 10.4 min | Activity [15]: Non-Toxic | inhibition (HeLa [16]): Active | inhibition (HeLa [17]): Active | Activity (HeLa [18]): Non-Toxic | inhibition (MCF7): Active | inhibition (HeLa [19]): Dose-Dependent Effect | Activity (HeLa [20]): Active | inhibition (4T1 [21]): Active | inhibition (HeLa [22]): Active | inhibition (4T1 [23]): Active | Activity [25]: Non-Toxic | Activity [26]: Non-Toxic | Activity [27]: Non-Toxic
